Earlier results in patent US20070281996A1, “Creatine prodrugs, compositions and uses thereof” (XenoPort, Inc., priority 2006, published 2007).

Legend:
[1] = healthy volunteers, oral creatine administration (Dechent et al.)
[2] = following oral creatine supplementation

CN(CC(=O)O)C(=N)N [creatine, Creatine]
increase of cerebral creatine phosphate [1]: about 10%
duration of increase in tissue creatine phosphate levels [2]: > 14 days
